Test results published in PMC9599520, “The Membrane Activity of the Amphibian Temporin B Peptide Analog TB_KKG6K Sheds Light on the Mechanism That Kills Candida albicans” (mSphere, 2022).
“And” between values parts separate entries of the source, which are not always exact repeats. Equal values may be shown once. Where no end group is shown, it is not given here.

Assays:
[1] = Vesicle leakage assay, PC-PS-ergosterol; format: biochemical; details: for relative change in leakage compared to PC-LUVs: P ≤ 0.05; for % Leakage: PC-PS-ergosterol-LUVs, 50 μM lipid, ANTS-DPX, HEPES pH 7.4, 30 min, 37°C, 1% Triton X-100 = 100%, mean ± SD, 2 experiments in duplicates
[2] = Vesicle leakage assay, PG-PE-CL; format: biochemical; details: PG-PE-CL-LUVs, 50 μM lipid, ANTS-DPX, HEPES pH 7.4, 30 min, 37°C, 1% Triton X-100 = 100%, mean ± SD, 2 experiments in duplicates
[3] = Vesicle leakage assay, PC-sphingomyelin; format: biochemical; details: for relative change in leakage compared to PC-LUVs: P ≤ 0.05; for % Leakage: PC-sphingomyelin-LUVs, 50 μM lipid, ANTS-DPX, HEPES pH 7.4, 30 min, 37°C, 1% Triton X-100 = 100%, mean ± SD, 2 experiments in duplicates
[4] = Vesicle leakage assay, PC-CL; format: biochemical; details: for relative change in leakage compared to PC-LUVs: P ≤ 0.05; for % Leakage: PC-CL-LUVs, 50 μM lipid, ANTS-DPX, HEPES pH 7.4, 30 min, 37°C, 1% Triton X-100 = 100%, mean ± SD, 2 experiments in duplicates
[5] = cited from earlier work
[6] = tested on: C. albicans cell membrane; experiment: Membrane depolarization assay with DiSC3(5) dye; format: cell-based, Candida albicans
[7] = Vesicle leakage assay, PC-ergosterol; format: biochemical; details: for relative change in leakage compared to PC-LUVs: P ≤ 0.05; for % Leakage: PC-ergosterol-LUVs, 50 μM lipid, ANTS-DPX, HEPES pH 7.4, 30 min, 37°C, 1% Triton X-100 = 100%, mean ± SD, 2 experiments in duplicates
[8] = Vesicle leakage assay, PG; format: biochemical; details: for relative change in leakage compared to PC-LUVs: P ≤ 0.05; for % Leakage: PG-LUVs, 50 μM lipid, ANTS-DPX, HEPES pH 7.4, 30 min, 37°C, 1% Triton X-100 = 100%, mean ± SD, 2 experiments in duplicates
[9] = Vesicle leakage assay, PC; format: biochemical; details: PC-LUVs, 50 μM lipid, ANTS-DPX, HEPES pH 7.4, 30 min, 37°C, 1% Triton X-100 = 100%, mean ± SD, 2 experiments in duplicates
[10] = Vesicle leakage assay, PC-PE-ergosterol; format: biochemical; details: for relative change in leakage compared to PC-LUVs: P ≤ 0.05; for % Leakage: PC-PE-ergosterol-LUVs, 50 μM lipid, ANTS-DPX, HEPES pH 7.4, 30 min, 37°C, 1% Triton X-100 = 100%, mean ± SD, 2 experiments in duplicates
C. albicans cells = experiment: Ultrastructural analysis by electron microscopy of cryo-fixed cells; details: 30 μM, 60 min, 30°C
[11] = Vesicle leakage assay, PC-PI; format: biochemical; details: for relative change in leakage compared to PC-LUVs: P ≤ 0.05; for % Leakage: PC-PI-LUVs, 50 μM lipid, ANTS-DPX, HEPES pH 7.4, 30 min, 37°C, 1% Triton X-100 = 100%, mean ± SD, 2 experiments in duplicates
[12] = Vesicle leakage assay, PC-PS; format: biochemical; details: for % Leakage: PC-PS-LUVs, 50 μM lipid, ANTS-DPX, HEPES pH 7.4, 30 min, 37°C, 1% Triton X-100 = 100%, mean ± SD, 2 experiments in duplicates
[13] = Vesicle leakage assay, PC-PE; format: biochemical; details: for relative change in leakage compared to PC-LUVs: P ≤ 0.05; for % Leakage: PC-PE-LUVs, 50 μM lipid, ANTS-DPX, HEPES pH 7.4, 30 min, 37°C, 1% Triton X-100 = 100%, mean ± SD, 2 experiments in duplicates
[14] = Vesicle leakage assay, PC-ceramide; format: biochemical; details: for % Leakage: PC-ceramide-LUVs, 50 μM lipid, ANTS-DPX, HEPES pH 7.4, 30 min, 37°C, 1% Triton X-100 = 100%, mean ± SD, 2 experiments in duplicates
[15] = tested on: mammalian cells; primary human skin cells and three-dimensional skin epidermal models; details: cited from earlier work

KKLLPIVKNLLKSLL-NH2 (C-terminus assumed) [TB_KKG6K]
relative change in leakage compared to PC-LUVs ([1]; 2 μM peptide): −36% | relative change in leakage compared to PC-LUVs ([1]; 4 μM peptide): −26% | % Leakage ([1]; 2 μM peptide (25:1)): 21.8 ± 3.5% | % Leakage ([1]; 4 μM peptide (12:1)): 30.1 ± 4.6% | % Leakage ([1]; 8 μM peptide (6:1)): 46.3 ± 4.2% | % Leakage ([2]; 2 μM peptide (25:1)): 5.3 ± 1.3% | % Leakage ([2]; 4 μM peptide (12:1)): 40.2 ± 0.9% | % Leakage ([2]; 8 μM peptide (6:1)): 61% ± 3% and 61.5 ± 2.7% | relative change in leakage compared to PC-LUVs ([3]; 2 μM peptide): −44% | relative change in leakage compared to PC-LUVs ([3]; 4 μM peptide): −34% | relative change in leakage compared to PC-LUVs ([3]; 8 μM peptide): −31% | % Leakage ([3]; 2 μM peptide (25:1)): 18.8 ± 3.1% | % Leakage ([3]; 4 μM peptide (12:1)): 26.5 ± 1.0% | % Leakage ([3]; 8 μM peptide (6:1)): 33.9 ± 2.0% | relative change in leakage compared to PC-LUVs ([4]; 2 μM peptide): −93% | relative change in leakage compared to PC-LUVs ([4]; 4 μM peptide): −75% | relative change in leakage compared to PC-LUVs ([4]; 8 μM peptide): +20% | % Leakage ([4]; 2 μM peptide (25:1)): 2.2 ± 0.8% | % Leakage ([4]; 4 μM peptide (12:1)): 9.9 ± 0.7% | % Leakage ([4]; 8 μM peptide (6:1)): 59.0 ± 5.8% | hydrophobicity (hydrophobic amino acids) [5]: 53% | positive net charge ([5]; pH 7): +3.9 | time to maximum DiSC3(5) fluorescence intensity ([6]; 1 μM peptide): 15 min | time to maximum DiSC3(5) fluorescence intensity ([6]; 2 μM peptide): 25 min | membrane depolarization, DiSC3(5) fluorescence intensity ([6]; 1 × 10^6 cells/mL, 30°C, 60 min, TB analog 0.5, 1, 2 μM, Triton X-100 1% (wt/vol), PCγ^C-terminal 32 μM): induced membrane depolarization in a concentration- and time-dependent manner | relative change in leakage compared to PC-LUVs ([7]; 2 μM peptide): −71% | relative change in leakage compared to PC-LUVs ([7]; 4 μM peptide): −68% | relative change in leakage compared to PC-LUVs ([7]; 8 μM peptide): −66% | % Leakage ([7]; 2 μM peptide (25:1)): 9.8 ± 1.5% | % Leakage ([7]; 4 μM peptide (12:1)): 13.0 ± 0.6% | % Leakage ([7]; 8 μM peptide (6:1)): 16.9 ± 2.0% | relative change in leakage compared to PC-LUVs ([8]; 4 μM peptide): +30% | relative change in leakage compared to PC-LUVs ([8]; 8 μM peptide): +20% | % Leakage ([8]; 2 μM peptide (lipid:peptide 25:1)): 56% ± 4% and 56.0 ± 4.0% | % Leakage ([8]; 4 μM peptide (12:1)): 57.7 ± 3.9% | % Leakage ([8]; 8 μM peptide (6:1)): 61% ± 4% and 61.1 ± 4.1% | % Leakage ([9]; 2 μM peptide (25:1)): 33.8 ± 3.0% | % Leakage ([9]; 4 μM peptide (12:1)): 40.6 ± 3.2% | % Leakage ([9]; 8 μM peptide (6:1)): 49.2 ± 4.5% | relative change in leakage compared to PC-LUVs ([10]; 2 μM peptide): −56% | relative change in leakage compared to PC-LUVs ([10]; 4 μM peptide): −58% | relative change in leakage compared to PC-LUVs ([10]; 8 μM peptide): −68% | % Leakage ([10]; 2 μM peptide (25:1)): 14.8 ± 0.8% | % Leakage ([10]; 4 μM peptide (12:1)): 17.1 ± 6.0% | % Leakage ([10]; 8 μM peptide (6:1)): 15.8 ± 1.3% | cell lysis (C. albicans cells): indications of cell lysis were not observed | ultrastructural damage (C. albicans cells): severe ultrastructural damage to the vast majority of cells | relative change in leakage compared to PC-LUVs ([11]; 4 μM peptide): +29% | relative change in leakage compared to PC-LUVs ([11]; 8 μM peptide): +15% | % Leakage ([11]; 2 μM peptide (25:1)): 37.7 ± 3.9% | % Leakage ([11]; 4 μM peptide (12:1)): 52.5 ± 2.4% | % Leakage ([11]; 8 μM peptide (6:1)): 56.5 ± 2.9% | relative change in leakage compared to PC-LUVs ([12]; 2 μM peptide, P ≤ 0.05): −33% | % Leakage ([12]; 2 μM peptide (25:1)): 22.6 ± 3.3% | % Leakage ([12]; 4 μM peptide (12:1)): 38.1 ± 10.5% | % Leakage ([12]; 8 μM peptide (6:1)): 47.4 ± 15.1% | relative change in leakage compared to PC-LUVs ([13]; 2 μM peptide): −32% | relative change in leakage compared to PC-LUVs ([13]; 4 μM peptide): −22% | relative change in leakage compared to PC-LUVs ([13]; 8 μM peptide): −19% | % Leakage ([13]; 2 μM peptide (25:1)): 22.8 ± 1.3% | % Leakage ([13]; 4 μM peptide (12:1)): 31.5 ± 2.1% | % Leakage ([13]; 8 μM peptide (6:1)): 40.0 ± 3.1% | relative change in leakage compared to PC-LUVs ([14]; 2 μM peptide, P ≤ 0.05): −47% | % Leakage ([14]; 2 μM peptide (25:1)): 17.9 ± 1.8% | % Leakage ([14]; 4 μM peptide (12:1)): 39.9 ± 2.4% | % Leakage ([14]; 8 μM peptide (6:1)): 44.8 ± 1.9% | hemolysis and cytotoxicity to mammalian cells in vitro [15]: neither hemolytic nor cytotoxic | tolerance by primary human skin cells and three-dimensional skin epidermal models in vitro [15]: well tolerated
